Measurements: ChEMBL document CHEMBL6074711, “Design, Synthesis, and Activity Evaluation of C-23-Modified 5-O-Mycaminosyltylonolide Derivatives” (ACS Med Chem Lett, 2024)
Converted amounts (≈) assume the structure as drawn.

Assays:
Type in all cases: functional
Conditions in all cases: time 16-20 hrs
Staphylococcus aureus [1] = experiment: Antibacterial activity against Staphylococcus aureus ATCC25923 incubated for 16 to 20 hrs by broth microdilution method
Escherichia coli [2] = experiment: Antibacterial activity against Escherichia coli ATCC25922 incubated for 16 to 20 hrs by broth microdilution method
Enterococcus faecalis = experiment: Antibacterial activity against Enterococcus faecalis ATCC29212 incubated for 16 to 20 hrs by broth microdilution method
[3] = test system: Stenotrophomonas maltophilia; experiment: Antibacterial activity against Stenotrophomonas maltophilia ATCC17808 incubated for 16 to 20 hrs by broth microdilution method
Staphylococcus aureus [4] = experiment: Antibacterial activity against drug-resistant Staphylococcus aureus clinical isolate M20 incubated for 16 to 20 hrs by broth microdilution method
Escherichia coli [5] = experiment: Antibacterial activity against drug-resistant Escherichia coli clinical isolate 1322 incubated for 16 to 20 hrs by broth microdilution method
Escherichia coli [6] = experiment: Antibacterial activity against drug-resistant Escherichia coli clinical isolate 1333 incubated for 16 to 20 hrs by broth microdilution method

SMILES | MIC (Staphylococcus aureus [1]) [µg/mL] | MIC (Escherichia coli [2]) [µg/mL] | MIC (Enterococcus faecalis) [µg/mL] | MIC [3] [µg/mL] | MIC (Staphylococcus aureus [4]) [µg/mL] | MIC (Escherichia coli [5]) [µg/mL] | MIC (Escherichia coli [6]) [µg/mL]
CC[C@H]1OC(=O)C[C@@H](O)[C@H](C)[C@@H](O[C@@H]2O[C@H](C)[C@@H](O)[C@H](N(C)C)[C@H]2O)[C@@H](CCN(C)Cc2cn(-c3cnc4ccccc4c3)nn2)C[C@@H](C)C(=O)/C=C/C(C)=C/[C@@H]1CN(CC)Cc1ccccc1 | 2 (≈ 2.13 µM) | 8 (≈ 8.53 µM) | 4 (≈ 4.26 µM) | 2 (≈ 2.13 µM) |  |  | 
CC[C@H]1OC(=O)C[C@@H](O)[C@H](C)[C@@H](O[C@@H]2O[C@H](C)[C@@H](O)[C@H](N(C)C)[C@H]2O)[C@@H](CCNCc2cn(-c3cnc4ccccc4c3)nn2)C[C@@H](C)C(=O)/C=C/C(C)=C/[C@@H]1CN(C)Cc1ccccc1 | 0.5 (≈ 0.549 µM) | 2 (≈ 2.2 µM) | 2 (≈ 2.2 µM) | 2 (≈ 2.2 µM) |  |  | 
CC[C@H]1OC(=O)C[C@@H](O)[C@H](C)[C@@H](O[C@@H]2O[C@H](C)[C@@H](O)[C@H](N(C)C)[C@H]2O)[C@@H](CCN(C)Cc2cn(-c3cnc4ccccc4c3)nn2)C[C@@H](C)C(=O)/C=C/C(C)=C/[C@@H]1CN(Cc1ccccc1)C(C)C | 8 (≈ 8.4 µM) | 16 (≈ 16.8 µM) | 16 (≈ 16.8 µM) | 8 (≈ 8.4 µM) |  |  | 
CC[C@H]1OC(=O)C[C@@H](O)[C@H](C)[C@@H](O[C@@H]2O[C@H](C)[C@@H](O)[C@H](N(C)C)[C@H]2O)[C@@H](CCNCc2cn(-c3cnc4ccccc4c3)nn2)C[C@@H](C)C(=O)/C=C/C(C)=C/[C@@H]1CNCc1ccc(Br)cc1 | 1 (≈ 1.03 µM) | 2 (≈ 2.05 µM) | 2 (≈ 2.05 µM) | 2 (≈ 2.05 µM) |  |  | 
CC[C@H]1OC(=O)C[C@@H](O)[C@H](C)[C@@H](O[C@@H]2O[C@H](C)[C@@H](O)[C@H](N(C)C)[C@H]2O)[C@@H](CCN2C[C@H](C)C[C@H](C)C2)C[C@@H](C)C(=O)/C=C/C(C)=C/[C@@H]1CO[C@@H]1O[C@H](C)[C@@H](O)[C@@H](OC)[C@H]1OC [TILMICOSIN] | 1 (≈ 1.15 µM) | > 32 | 1 (≈ 1.15 µM) | > 32 |  |  | 
CC[C@H]1OC(=O)C[C@@H](O)[C@H](C)[C@@H](O[C@@H]2O[C@H](C)[C@@H](O)[C@H](N(C)C)[C@H]2O)[C@@H](CCNCc2cn(-c3cnc4ccccc4c3)nn2)C[C@@H](C)C(=O)/C=C/C(C)=C/[C@@H]1CN(CC)Cc1ccccc1 | 2 (≈ 2.16 µM) | 1 (≈ 1.08 µM) | 2 (≈ 2.16 µM) | 1 (≈ 1.08 µM) |  |  | 
CC[C@H]1OC(=O)C[C@@H](O)[C@H](C)[C@@H](O[C@@H]2O[C@H](C)[C@@H](O)[C@H](N(C)C)[C@H]2O)[C@@H](CCNCc2cn(-c3cnc4ccccc4c3)nn2)C[C@@H](C)C(=O)/C=C/C(C)=C/[C@@H]1CNCc1ccccc1 | 2 (≈ 2.23 µM) | 1 (≈ 1.12 µM) | 2 (≈ 2.23 µM) | 1 (≈ 1.12 µM) |  |  | 
CCc1ccc(NC[C@H]2/C=C(C)/C=C/C(=O)[C@H](C)C[C@H](CCN(C)Cc3cn(-c4cnc5ccccc5c4)nn3)[C@H](O[C@@H]3O[C@H](C)[C@@H](O)[C@H](N(C)C)[C@H]3O)[C@@H](C)[C@H](O)CC(=O)O[C@@H]2CC)cc1 | 2 (≈ 2.16 µM) | 2 (≈ 2.16 µM) | 2 (≈ 2.16 µM) | 2 (≈ 2.16 µM) |  |  | 
CC[C@H]1OC(=O)C[C@@H](O)[C@H](C)[C@@H](O[C@@H]2O[C@H](C)[C@@H](O)[C@H](N(C)C)[C@H]2O)[C@@H](CC=O)C[C@@H](C)C(=O)/C=C/C(C)=C/[C@@H]1CO | 0.5 (≈ 0.836 µM) | > 32 | 0.5 (≈ 0.836 µM) | > 32 | 1 (≈ 1.67 µM) | > 32 | > 32
CC[C@H]1OC(=O)C[C@@H](O)[C@H](C)[C@@H](O[C@@H]2O[C@H](C)[C@@H](O)[C@H](N(C)C)[C@H]2O)[C@@H](CCN(C)Cc2cn(-c3cnc4ccccc4c3)nn2)C[C@@H](C)C(=O)/C=C/C(C)=C/[C@@H]1CNCc1ccc(F)cc1 | 2 (≈ 2.15 µM) | 8 (≈ 8.62 µM) | 8 (≈ 8.62 µM) | 4 (≈ 4.31 µM) |  |  | 
CC[C@H]1OC(=O)C[C@@H](O)[C@H](C)[C@@H](O[C@@H]2O[C@H](C)[C@@H](O)[C@H](N(C)C)[C@H]2O)[C@@H](CCN(C)Cc2cn(-c3cnc4ccccc4c3)nn2)C[C@@H](C)C(=O)/C=C/C(C)=C/[C@@H]1CNCc1ccccc1 | 1 (≈ 1.1 µM) | 2 (≈ 2.2 µM) | 4 (≈ 4.39 µM) | 2 (≈ 2.2 µM) |  |  | 
CC[C@H]1OC(=O)C[C@@H](O)[C@H](C)[C@@H](O[C@@H]2O[C@H](C)[C@@H](O)[C@H](N(C)C)[C@H]2O)[C@@H](CCN(C)Cc2cn(-c3cnc4ccccc4c3)nn2)C[C@@H](C)C(=O)/C=C/C(C)=C/[C@@H]1CNc1ccc(C)cc1 | 4 (≈ 4.39 µM) | 4 (≈ 4.39 µM) | 8 (≈ 8.79 µM) | 4 (≈ 4.39 µM) |  |  | 
